From patent US4048333A (priority 1971, dated 1977) come the findings set out here.

Some results are limits rather than exact numbers.

Data set [1] deals with poliovirus 1. It counts as cell-based, poliovirus 1 (FL cells). The conditions noted are these: maximum subtoxic concentration; for Results from one-step virus growth cycle experiments, PFU/ml: control 1.2×10^9; for Results from one-step virus growth cycle experiments, % of inhibition: virus yield vs control.
The test system of another data set is echovirus 19. The data set can be described thus: one-step virus growth cycle experiments, echovirus 19. It counts as cell-based, echovirus 19 (FL cells). The conditions noted are these: maximum subtoxic concentration; for Results from the one-step virus growth cycle experiments, PFU/ml: control 2.6×10^9; for Results from the one-step virus growth cycle experiments, % of inhibition: virus yield vs control.

The next data set has as its system coxsackievirus B1. The format is cell-based, coxsackievirus B1 (FL cells).
In the next data set the test system is FMD virus type C. It counts as cell-based, FMD virus type C (calf kidney primary cultures).
A further data set relates to FMD virus. The arrangement: species or system guinea pigs. The conditions noted are these: guinea pig, in vivo.
In data set [2] the test system is poliovirus 1. The format is cell-based, poliovirus 1 (FL cells). The conditions noted are these: FL cells, 48 hour incubation.
The test system of data set [3] is coxsackievirus B1, B3, A6 and A7. Put plainly: animal or person. The format is in vivo, newborn mice. The conditions noted are these: for ED50: Enterovirus B, B1, in Mus musculus, sc, read-out: ED50 dose; for antiviral activity on experimental Coxsackie infections (in words): mouse, in vivo; for retardation of the course of the infection: newborn mice, 3-10 LD50, subcutaneous once daily.

Another data set deals with FMD. The arrangement: species or system newborn mice. The conditions noted are these: mouse, in vivo.
The nature of data set [4]: acute toxicity / selectivity index, species not stated. The conditions noted are these: in vivo; species and route not given.
The test system of the next data set is rats. The data set can be described thus: subacute toxicity for rats. It counts as in vivo. The conditions noted are these: intraperitoneal, 200 mg/kg daily for 30 days.
Data set [5] can be described thus: acute toxicity for rats (LD50, Pershin method). The conditions noted are these: rat, in vivo, ip, intraperitoneal.
The subject of a further data set is pregnant female rats. The data set can be described thus: teratogenic effect in pregnant female rats. The format is in vivo. The conditions noted are these: intraperitoneal, daily doses of 100 mg/kg.
Data set [6] in a line: acute toxicity for mice (LD50, Pershin method). The conditions noted are these: mouse, in vivo; for LD50: mice, Pershin method.

For the molecule `Oc1ccc(NC(=S)Nc2ccccc2)cc1` [Example 6], in the data set with poliovirus 1 [1], the “Results from one-step virus growth cycle experiments, PFU/ml” value was 3.7×10^8 PFU/ml and the “Results from one-step virus growth cycle experiments, % of inhibition” value is 69.17%.

On to `S=C(Nc1ccccc1)Nc1cnc2ccccc2c1` [Example 1], for which, in the data set on poliovirus 1 [1], the “Results from one-step virus growth cycle experiments, PFU/ml” value is 3.3×10^8 PFU/ml and the “Results from one-step virus growth cycle experiments, % of inhibition” value is listed as 67.00%.

As to `O=C(O)CCCNC(=S)Nc1ccccc1` [Example 8, γ-phenylthioureidobutyric acid], the results for the “Results from the one-step virus growth cycle experiments, PFU/ml” value with echovirus 19 and with coxsackievirus B1 were 5× 10^6 PFU/ml and ≤ 1×10^6 PFU/ml, respectively. Moreover, the results for the “Results from the one-step virus growth cycle experiments, % of inhibition” value in the data set on echovirus 19 (listed as 21) and with echovirus 19 (listed as μ-phenylthioureidobutyric acid) were 99.81% and “above 99%”, respectively. Further, the “Results from one-step virus growth cycle experiments, PFU/ml” value with poliovirus 1 [1] was 1.5×10^7 PFU/ml.

On to `S=C(Nc1ccccc1)Nc1ccc(Cl)cc1NC(=S)Nc1ccccc1` [Example 11], for which, in the data set with poliovirus 1 [1], the “Results from one-step virus growth cycle experiments, PFU/ml” value is listed as 4.3×10^8 PFU/ml and the “Results from one-step virus growth cycle experiments, % of inhibition” value turned out to be 57.00%.

As to `CC(=O)c1ccc(NC(=S)Nc2ccccc2)cc1` [Example 10], in the data set on poliovirus 1 [1], the “Results from one-step virus growth cycle experiments, PFU/ml” value was 4.6×10^7 PFU/ml and the “Results from one-step virus growth cycle experiments, % of inhibition” value came out at 96.17%.

As to `Oc1cccc(NC(=S)Nc2ccccc2)c1` [Example 13], in the data set on coxsackievirus B1, the “Results from the one-step virus growth cycle experiments, PFU/ml” value is listed as ≤ 1×10^6 PFU/ml.

For `Oc1ccc(NC(=S)Nc2ccccc2)cc1` [Example 24, N-phenyl-N'-4-hydroxyphenylthiourea], in the data set on FMD virus type C, the “Results from the one-step virus growth cycle experiments, % of inhibition” value came out at 99.65% and the “Results from the one-step virus growth cycle experiments, PFU/ml” value was 2.5×10^4 PFU/ml. The “reduction of the number of ailing animals compared with the placebo group” value in the data set with FMD virus was “reduces the number of ailing animals two to three and a half times”.

Consider `S=C(Nc1ccccc1)Nc1cccc2cccnc12` [Example 2], for which, in the data set on poliovirus 1 [1], the “Results from one-step virus growth cycle experiments, PFU/ml” value was 5.2×10^8 PFU/ml and the “Results from one-step virus growth cycle experiments, % of inhibition” value amounted to 48.00%.

Consider `Oc1cccc(NC(=S)Nc2ccccc2)c1` [Example 5], for which, in the data set with poliovirus 1 [1], the “Results from one-step virus growth cycle experiments, PFU/ml” value was 7×10^6 PFU/ml and the “Results from one-step virus growth cycle experiments, % of inhibition” value is 99.42%. Further, the “Results from the gradient plaque-inhibition test” value with poliovirus 1 [2] is “+ +”.

As to `Oc1ccc(NC(=S)Nc2ccccc2)cc1` [Example 14], the “Results from the one-step virus growth cycle experiments, PFU/ml” value in the data set with coxsackievirus B1 was < 1×10^6 PFU/ml.

Consider `O=[N+]([O-])c1ccc(O)c(NC(=S)Nc2ccccc2)c1` [Example 20, N-phenyl-N'-2-hydroxy-5-nitrophenylthiourea], for which, in the data set with echovirus 19, the “Results from the one-step virus growth cycle experiments, PFU/ml” value is 5.9×10^7 PFU/ml and the “Results from the one-step virus growth cycle experiments, % of inhibition” value stood at 97.73%.

For `O=C(O)c1ccccc1NC(=S)Nc1ccccc1` [N-phenyl-N'-2-carboxyphenylthiourea], in the data set with echovirus 19, the “Results from the one-step virus growth cycle experiments, % of inhibition” value is “above 99%”. Moreover, the “Results from one-step virus growth cycle experiments, % of inhibition” value with poliovirus 1 [1] was 95-99%.

Consider `O=C(O)c1ccc(NC(=S)Nc2ccccc2)cc1O` [Example 18], for which, in the data set with echovirus 19, the “Results from the one-step virus growth cycle experiments, PFU/ml” value is < 1×10^6 PFU/ml and the “Results from the one-step virus growth cycle experiments, % of inhibition” value is reported as more than 99.96%.

Regarding `CC(=O)c1ccc(NC(=S)Nc2ccccc2)cc1` [N-phenyl-N'-acetylphenylthiourea], the “Results from one-step virus growth cycle experiments, % of inhibition” value in the data set on poliovirus 1 [1] is 95-99%.

As to `Oc1cccc(NC(=S)Nc2ccccc2)c1` [Example 22, N-phenyl-N'-3-hydroxyphenylthiourea], the “Results from the one-step virus growth cycle experiments, % of inhibition” value in the data set on echovirus 19 was “above 99%”. Moreover, in data set [3], the ED50 is 86.6 mg/kg, the “antiviral activity on experimental Coxsackie infections (in words)” value is “marked antiviral activity” and the “retardation of the course of the infection” value lay in the range of 2 to 3 days. In addition, the “animals in which development of FMD encephalitis is prevented” value in the data set on FMD was 33.3%. In data set [4], the LD50 was 1000 mg/kg. Also, in the data set with FMD virus type C, the “Results from the one-step virus growth cycle experiments, % of inhibition” value is recorded as 97.92% and the “Results from the one-step virus growth cycle experiments, PFU/ml” value is listed as 1.5×10^5 PFU/ml.

With `O=C(O)c1ccc(NC(=S)Nc2ccccc2)cc1O` [Example 4, N-phenyl-N'-4-carboxy-5-hydroxyphenylthiourea], the “Results from the one-step virus growth cycle experiments, % of inhibition” value in the data set on echovirus 19 is listed as “above 99%”. In addition, in data set [3], the ED50 worked out at 43.3 mg/kg, the “antiviral activity on experimental Coxsackie infections (in words)” value is “marked antiviral activity” and the “retardation of the course of the infection” value was in the range of 2 to 3 days. Besides, in the data set on poliovirus 1 [1], the “Results from one-step virus growth cycle experiments, PFU/ml” value is reported as < 1×10^6 PFU/ml and the “Results from one-step virus growth cycle experiments, % of inhibition” value is more than 99.92%. Besides, the “subacute toxicity: changes in general state, behaviour, weight, blood pattern” value in the data set with rats is “no changes in the general state and behaviour of the animals, or in their weight, the blood pattern, etc. were observed”. Besides, the LD50 in data set [5] is 734 mg/kg. For the same molecule, in the data set on pregnant female rats, the teratogenic effect entry is recorded as “No teratogenic effect”. Further, in data set [6] (ip, intraperitoneal), the LD50 is 550 mg/kg. Moreover, in [6] (sc, subcutaneous), the LD50 was more than 1000 mg/kg. In [6] (LD50 /ED50, read-out: selectivity index (LD50 /ED50)), the selectivity ratio is not below 23.

As for `Cc1cccc(NC(=S)Nc2ccccc2)c1` [Example 9], in the data set with poliovirus 1 [1], the “Results from one-step virus growth cycle experiments, PFU/ml” value was 1.4×10^7 PFU/ml and the “Results from one-step virus growth cycle experiments, % of inhibition” value was determined as 98.79%.

On to `Oc1cccc(NC(=S)Nc2ccccc2)c1` [Example 19], for which, in the data set with echovirus 19, the “Results from the one-step virus growth cycle experiments, PFU/ml” value was 2×10^6 PFU/ml and the “Results from the one-step virus growth cycle experiments, % of inhibition” value worked out at 99.92%.

As for `O=[N+]([O-])c1ccc(O)c(NC(=S)Nc2ccccc2)c1` [Example 15], in the data set with coxsackievirus B1, the “Results from the one-step virus growth cycle experiments, % of inhibition” value was 93.87% and the “Results from the one-step virus growth cycle experiments, PFU/ml” value is 4.6×10^7 PFU/ml.

For `O=C(O)c1ccccc1NC(=S)Nc1ccccc1` [Example 17], in the data set with echovirus 19, the “Results from the one-step virus growth cycle experiments, PFU/ml” value is given as 5×10^6 PFU/ml and the “Results from the one-step virus growth cycle experiments, % of inhibition” value amounted to 99.81%.

For the molecule `O=[N+]([O-])c1ccc(O)c(NC(=S)Nc2ccccc2)c1` [Example 7], in the data set with poliovirus 1 [1], the “Results from one-step virus growth cycle experiments, PFU/ml” value is on record as 3.5×10^8 PFU/ml and the “Results from one-step virus growth cycle experiments, % of inhibition” value was found to be 70.83%.

Consider `O=C(O)c1ccccc1NC(=S)Nc1ccccc1` [Example 3], for which, in the data set on poliovirus 1 [1], the “Results from one-step virus growth cycle experiments, PFU/ml” value is reported as 5.9×10^7 PFU/ml and the “Results from one-step virus growth cycle experiments, % of inhibition” value is listed as 95.09%.

For the molecule `O=C(O)c1ccc(NC(=S)Nc2ccccc2)cc1O` [Example 12], the “Results from the one-step virus growth cycle experiments, PFU/ml” value in the data set on coxsackievirus B1 is listed as ≤ 1×10^6 PFU/ml.

Regarding `Cc1cccc(NC(=S)Nc2ccccc2)c1` [N-phenyl-N'-3-tolylthiourea], in the data set on poliovirus 1 [1], the “Results from one-step virus growth cycle experiments, % of inhibition” value is 95-99%.

Broadly, the ED50 is the midpoint of the dose-response relation. Usually LD50 stands for the dose at which mortality reaches 50%. Low readings indicate a more toxic substance, high ones a less toxic substance.
